Test results reported in patent US9598384B2, “3-(2-amino-ethyl)-alkylidene)-thiazolidine-2,4-dione and 1-(2-amino-ethyl)-alkylidene-1,3-dihydro-indol-2-one derivatives as selective sphingosine kinase 2 inhibitors” (VIRGINIA COMMONWEALTH UNIVERSITY, priority 2012, dated 2017).

Key:
[1] = test system: human leukemia U937 cells; experiment: Cell viability assay in human leukemia U937 cells; assay type: cell-based
Method: Cells were cultured at a density of 5×10^4 (U937) or 1×10^4 (PC-3, DU145, M12, HT29) cells per well in flat bottomed 96-well plates and treated with various concentrations of test compound at 37° C. (5% CO2). After 24 h, 20 μL of CellTiter 96® Aqueous One Solution Reagent (Promega, Madison, Wis.) was added to each well according to the manufacturer's instructions. After 1 hour, the cell viability was determined by measuring the absorbance at 490 nm using a micro-plate reader.

[2] = test system: Raf/MEK/ERK and PI3K/Akt signaling pathways; experiment: Western blot analysis of ERK and Akt phosphorylation; assay type: cell-based
Method: Cells (5×10^5 per ml) were treated with various concentrations of test compound at 37° C. (5% CO2) for 3 hrs, then stimulated with TPA at a final concentration of 200 nM for 20 min. Samples from whole-cell pellets were prepared and 30 μg protein for each condition was subjected to SDS-PAGE, transferred onto a PVDF membrane, and blocked with 5% fat-free milk for 30 min. The membrane is probed with primary antibodies overnight at 4° C. followed by incubation with horseradish peroxidase-labeled anti-mouse IgG (1:5000, BD Bioscience). The immunoreactive bands are detected by chemilluminescence methods (Pierce) and visualized on Kodak Omat film. The following primary antibodies were used: phospho-p44/42 MAPK (ERK1/2, Thr202/Tyr204), p44/42 MAPK, phospho-p90RSK (Thr359/Ser363), RSK1/RSK2/RSK3 (Cell Signaling). Blots were reprobed with antibodies against α-tubulin to ensure equal loading and transfer of proteins.

JC xenograft = experiment: JC xenografts in syngenic BALB/c mice, i.p.; assay type: in vivo
Method: FIG. 14A-E. K145 suppresses the growth of JC xenograft in BALB/c mice. BALB/c mice (n=8) with palpable JC xenograft were treated daily with vehicle or K145 (20 mg/kg and 35 mg/kg) for 15 days by i.p. injection.
Female BALB/c mice (n=12) were injected with 1×10^6 JC cells subcutaneously in the flank, and treatment with the compound produced as described in Example 15 i.e. 3-(2-aminoethyl)-5-[3-(4-butoxyphenyl)-propylidene]-thiazolidine-2,4-dione (Formula III-K145, 20 mg/kg and 35 mg/Kg dosage daily (i.p.) was started seven days after the tumor cell injection and stopped at day […]. Mice were sacrificed at 15 days treatment.

S1P = experiment: Cellular S1P level in U937 cells by ESI-MS/MS; assay type: cell-based, human; conditions: 10 μM, 3 h
Method: (§1) FIG. 16A-E. K145 accumulates and suppresses the S1P level. A and B) U937 cells were treated with K145 at the indicated concentrations for 3 h and the levels of K145 and S1P were measured by ESI-MS/MS. C) HEK293 cells were treated with K145 (10 μM) for 2 h. Lipids were extracted and different chain length species of ceramide were determined by LC-ESI-MS/MS. Numbers indicate chain length followed by the number of double bonds in the fatty acid. Data are averages of triplicate determinations and are expressed as pmol lipid/10^6 cells. D) U937 cells were treated with or without K145 (10 μM) for 3 h and levels of C1P species were determined by ESI-MS/MS. E) U937 cells were treated with FTY720 (1 μM) in the absence or presence of indicated K145 for 3 h, then FTY720-P was measured by ESI-MS/MS. *P<0.05 compared to control.
(§2) Next we examined whether K145 affects cellular levels of S1P. […] Therefore, we further characterized K145 in U937 cells. […] This might be due to the fact that many enzymes such as SphK1, SphK2, S1P lyase, and S1P phosphatise, not just SphK2, are involved in the regulation of cellular S1P. […] To further confirm its SphK2 selectivity, we then tested the effects of K145 on the phosphorylation of FTY720, a SphK2 specific substrate.

[3] = test system: ceramide-1-phosphate (C1P); experiment: C1P species in U937 cells by ESI-MS/MS; assay type: cell-based, human; conditions: 10 μM, 3 h
Method: as §1, §2

U937 cells = experiment: Uptake of K145 by U937 cells, ESI-MS/MS; assay type: in vitro ADME, human; conditions: 3 h, concentration dependent
Method: as §1, §2

U937 xenograft = experiment: U937 xenografts in nude mice, oral administration
Method: BALB/c-nu mice (n=7) with palpable U937 xenograft were treated daily with vehicle, tamibarotene (20 mg/kg), or K145 (50 mg/kg) for 15 days by oral gavage. After treatment, animals were sacrificed and tumors were removed, weighed and images were taken. […] Data are expressed as mean value±SEM. *P<0.05 compared to control group.
In this experiment, K145 was given at 50 mg/kg by oral gavage daily for 15 days and tumor volume and animal weights were measured every other day. Again, tamibarotene (20 mg/kg) was used as positive control.

SphK2 = molecular target: T1, SphK2 (Homo sapiens, UniProt Q9NRA0); experiment: Phosphorylation of FTY720 (SphK2 specific substrate) in U937 cells; assay type: cell-based; design: U937 cells were treated with FTY720 (1 μM) in the absence or presence of indicated K145 for 3 h; endogenous in cells; host or cells: U937; conditions: FTY720 1 μM, 3 h
T1 sequence (Q9NRA0 1-654): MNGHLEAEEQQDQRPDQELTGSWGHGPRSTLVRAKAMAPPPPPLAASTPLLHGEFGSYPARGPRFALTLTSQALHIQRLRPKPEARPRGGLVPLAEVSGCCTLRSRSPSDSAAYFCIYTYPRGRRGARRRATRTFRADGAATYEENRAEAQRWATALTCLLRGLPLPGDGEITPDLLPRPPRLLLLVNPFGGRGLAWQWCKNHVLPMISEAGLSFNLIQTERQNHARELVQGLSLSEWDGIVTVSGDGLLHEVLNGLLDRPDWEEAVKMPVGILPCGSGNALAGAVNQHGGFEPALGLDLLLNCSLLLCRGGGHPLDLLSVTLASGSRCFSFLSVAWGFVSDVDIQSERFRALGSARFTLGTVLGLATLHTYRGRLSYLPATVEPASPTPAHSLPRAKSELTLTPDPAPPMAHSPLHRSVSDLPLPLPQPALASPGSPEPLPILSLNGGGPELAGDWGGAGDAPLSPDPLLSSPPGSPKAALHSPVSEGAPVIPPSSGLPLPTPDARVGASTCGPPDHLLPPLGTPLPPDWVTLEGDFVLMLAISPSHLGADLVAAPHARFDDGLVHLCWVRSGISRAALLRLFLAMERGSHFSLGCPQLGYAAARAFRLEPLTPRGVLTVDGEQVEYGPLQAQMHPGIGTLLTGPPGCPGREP

**Q.** For CCCCOc1ccc(CC/C=C2\SC(=O)N(CCN)C2=O)cc1 [K145, 3-(2-aminoethyl)-5-[3-(4-butoxyl-phenyl)-propylidene]-thiazolidine-2,4-dione], which “IC50 for proliferation of tested cancer cells (in words)” value ([1]; FIG. 8, U937 cells, 24 h) is on record?
**A.** single digit micromolar

**Q.** And the “inhibition of growth/proliferation of U937 cells (in words)” value ([1]; human leukemia U937 cells)?
**A.** dose-dependently inhibits the growth

**Q.** What about the “phosphorylation of both ERK and Akt” value ([2]; 3 μM, 3 hrs treatment, then TPA stimulation) of the same molecule?
**A.** significantly inhibited

**Q.** And the “inhibition of Raf/MEK/ERK and PI3K/Akt signaling pathways” value ([2]; Western blot, FIGS. 9 and 10)?
**A.** inhibits

**Q.** What about the “S1P level in JC tumor samples” value (JC xenograft; 20 mg/kg group vs vehicle, ESI-MS/MS) of the same molecule?
**A.** suppressed

**Q.** What about the “K145 level in JC tumor samples” value (JC xenograft; 20 mg/kg group, ESI-MS/MS) of the same molecule?
**A.** detected

**Q.** And the “p-ERK and p-Akt levels in tumor samples” value (JC xenograft; 20 mg/kg vs vehicle, Western blot)?
**A.** decreased

**Q.** And the “changes in body weights and major organs (heart, lung, liver, kidney)” value (JC xenograft; 20 and 35 mg/kg i.p., 15 days)?
**A.** did not observe significant changes

**Q.** What about the “tumor weights vs vehicle-treated mice” value (JC xenograft; 20 and 35 mg/kg i.p., 15 days) of the same molecule?
**A.** significantly less

**Q.** What about the “mean volume of JC tumors smaller than in vehicle-treated mice” value (JC xenograft; both doses (20 and 35 mg/kg daily i.p.), after 15 days) of the same molecule?
**A.** > 50%

**Q.** And the “total cellular S1P” value (S1P)?
**A.** caused a decrease

**Q.** And the “level of ceramide-1-phosphate (C1P)” value [3]?
**A.** not significantly affected

**Q.** What about the “uptake by U937 cells” value (U937 cells) of the same molecule?
**A.** readily taken up

**Q.** What about the oral availability (U937 xenograft; 50 mg/kg oral gavage) of the same molecule?
**A.** orally available

**Q.** And the toxicity (U937 xenograft; 50 mg/kg oral, 15 days)?
**A.** no apparent toxicity was observed

**Q.** And the body weights (U937 xenograft; 50 mg/kg oral, beginning of the treatment, recovered later)?
**A.** slight decrease of body weights

**Q.** What about the “TGI (tumor growth inhibition)” value (U937 xenograft; oral gavage daily 15 days, K145 50 mg/kg, tamibarotene 20 mg/kg) of the same molecule?
**A.** 51.25%

**Q.** And the “phosphorylation of FTY720” value (SphK2)?
**A.** inhibited
